Measured values from US11000502B2, “Antimicrobial compositions comprising copper-hydroxypyrone complexes” (United Kingdom Research and Innovation, priority 2017, dated 2021).

Key:
[1] = system: E. coli NCTC1110; assay: In vitro antibacterial assay for liquid copper solutions (turbidimetric E. coli growth inhibition); type: cell-based
Method: Preparation of Copper Complexes with EDTA, Maltol and Ethyl Maltol for Antimicrobial Testing
Cu-EDTA complexes were freshly prepared by dissolving CuCl2.2H2O and disodium ethylenediaminetetraacetate (EDTA) di-hydrate in UHP water. The pH was adjusted to 7.5±0.2 with 1M NaOH. Various Cu:EDTA ratios were achieved by maintaining concentration copper at 20 mM (ca. 1270 ppm), whilst changing that of EDTA—20 and 200 mM—thus achieving Cu-EDTA ratios of 1:1 and 1:10, respectively.
CuMaltol (ratio 1:1) was prepared by mixing equivalent volumes of 100 mM CuCl2.2H2O solution with an alkaline (pH>11) 100 mM maltol solution and quickly diluting the mixture to 10 mM Cu (final pH of 5.7).
Cu Ethylmaltol (ratio 1:1) was prepared by mixing appropriate volumes of 80 mM CuCl2.2H2 O solution with an alkaline (pH>10.5) 20 mM ethylmaltol solution and quickly diluting the mixture to 10 mM Cu and 10 mM ethylmaltol (final pH of 7.2).
CuMaltol (ratio 1:4) was prepared by mixing appropriate volumes of 80 mM CuCl2.2H2O solution with an alkaline (pH>10.5) 60 mM maltol solution and quickly diluting the mixture to 10 mM Cu and 40 mM maltol (final pH of 8.5).
Cu Ethylmaltol (ratio 1:4) was prepared by mixing appropriate volumes of 80 mM CuCl2.2H2O solution with an alkaline (pH>10.5) 60 mM ethylmaltol solution and quickly diluting the mixture to 10 mM Cu and 40 mM ethylmaltol (final pH of 8.5).
Heavy Metal MOPS (HMM) Medium, pH 7.2±0.2.
HMM is a defined medium developed for testing heavy metals and here was supplemented with glucose and cas-amino acids (acid hydrolysate of casein) and optionally with 4% BSA. HMM was prepared from concentrated stock solutions of each reagent, and pH adjusted to 7.2±0.2 (Table 1). Freshly prepared medium was immediately filtered through a 0.22 micron membrane and stored at 4±2° C.
In Vitro Antibacterial Assay for Liquid Copper Solutions
Antimicrobial activity was assessed through determination of E. coli NCTC1110 growth inhibition in the presence of copper compounds. A turbidimetric assay was used to follow bacterial concentration over time as this is proportional to optical density (OD at 595 nm) in liquid medium. Bacterial cultures were grown overnight in HMM at 30° C. under constant shaking (80 rpm). On the day of the assay, the OD of the bacterial suspension was measured at 595 nm on a plate reader and diluted in HMM to achieve an OD of 0.05. […] Final copper concentrations in the assay ranged between 0.4 and 50 ppm, and OD was measured every hour for a typical period of 6 to 8 hours. OD background, i.e. OD absorbance not caused by bacteria, was determined to remove readout interference from copper and broth. Growth inhibition was calculated as follows: […]

[2] = Exemplification of redox protection (copper maltol degradation to cuprous hydroxide); type: physicochemical; settings: pH 11.8 with sodium hydroxide; overnight (A) / several days (B, 30% (w/w) PEG)
Method: Exemplification of Redox Protection
A 40 mM copper stock was prepared by dissolving 0.347 g copper chloride dihydrate in 50 mL water. The resulting solution was blue.
A 160 mM maltol stock was prepared by dissolving 1.01 g maltol in 50 mL water and pH adjusting with NaOH (pH>10.5. This produced a clear solution.
Experiment A: Copper Maltol Degradation
The copper and maltol stocks were mixed in water at 1:1 ratios (v:v) producing a green solution. pH was then adjusted to 11.8 with sodium hydroxide to accelerate redox conversion.
Experiment B: Copper Maltol-PEG Assemblies Prevent Redox Conversion
Same as experiment A but 30% (w/w) PEG was added.

O=C([O-])CN(CCN(CC(=O)[O-])CC(=O)O)CC(=O)O.[Cu+2] [copper EDTA, reference compound]
antibacterial action against E. coli (FIG. 1) ([1]; HMM pH 7.2, 6 hours, Cu:EDTA 1:1 and 1:10): significantly suppressing its antibacterial action

[Cl][Cu][Cl] [copper chloride, reference compound]
E. coli growth inhibition ([1]; bacterial media (HMM) comprising 4% BSA, 50 ppm copper, 6 hours): 60%

Copper ethylmaltol
antimicrobial properties in protein-rich environments ([1]; HMM with 4% BSA, 6 hours, ratios 1:1 and 1:4): retained

copper maltol
suppression of E. coli growth ([1]; bacterial media (HMM) comprising 4% BSA, 40 ppm copper, 6 hours): completely suppressed
redox conversion of Cu2+ to cuprous hydroxide (red precipitate) [2]: a red precipitate (cuprous hydroxide) deposited
